Laboratory results reported in US20250296917A1, “SPIRO-CYCLIC AMINE DERIVATIVES AS S1P MODULATORS” (AbbVie Deutschland GmbH & Co. KG, priority 2020, published 2025).

Tests used:
Type in all cases: cell-based
[1] = target: T1, human S1PR3 (Homo sapiens, UniProt Q99500); test: Intracellular Ca2+ release agonist assay (Calcium 5 FLIPR), CHO-K1 cells expressing human S1PR3; conditions: agonism, recombinant CHO-K1 cells with aequorin and Gq/i5; read-out: hS1PR3 pEC50 (converted)
T1 construct: host or cells: CHO-K1
Description: (§1) Agonist potency and efficacy were assessed by measurement of intracellular […] release. Recombinant CHO-K1 cells (Euroscreen, Brussels, Belgium) expressing human S1PR5, S1PR1, S1PR3 or S1PR4 receptors, aequorin, and GTP binding protein Gq/i5 were cultured using a medium containing nutrient mixture F-12 Ham (Sigma-Aldrich) supplemented with 10% FBS, 100 µg/mL gentamicin and equilibrated at 5% C02. 15.000 cells in […] medium were seeded into Biocoat poly-D-Lysine coated 384 well plates (Becton Dickinson #35-6663) and grown to ˜95% confluency after 24 h. Culture medium was replaced by an assay buffer consisting of HBBS with Ca2+ and Mg2+ (Invitrogen #14025-050), 20 mmol/L Hepes (Sigma-Aldrich #H-3375), 2.5 mmol/L probenecid (Sigma-Aldrich #P-8761, and 0.1% BSA (Sigma-Aldrich #A-7030) pH 7.4. The Calcium 5 no-wash FLIPR assay kit (Molecular Devices #5000625) was performed as described in the kit instructions. Cells were incubated with Calcium 5 dye for 1 h at 37° C., 5% CO2 in the dark. After 45 min adaptation to RT assessment of agonist stimulation of intracellular Ca2+ release was performed by addition of test compounds at various concentrations obtained by serial dilution. Phospho-fingolimod was used as positive control and reference agonist (intrinsic activity 100%).

[2] = target: hS1PR2 (recombinant human S1P2 receptor) (Homo sapiens, UniProt O95136); test: hS1PR2 agonist aequorin luminescence assay (Euroscreen/Eurofins); conditions: agonism, cells co-expressing apoaequorin, human Gα16 and S1P2 receptor; read-out: hS1PR2 pEC50 (converted)
Description: Efficacy testing for hS1PR2 was performed at Euroscreen, Eurofins, France. Cells co-expressing mitochondrial Apoaequorin, recombinant human Gα16 and S1P2 receptor (FAST-0198A) grown to mid-log phase in culture media without antibiotics were detached with PBS-EDTA, centrifuged and resuspended in assay buffer (DMEM/HAM's F12 with HEPES, without phenol red+0.1 fatty acid free BSA) at a concentration of 1×10^6 cells/ml. Cells were incubated at room temperature for at least 4 h with coelenterazine. The reference agonists S1P and […] were tested to evaluate the performance of the assay on each day of the test and determine the EC50. For agonist testing, cell suspension was mixed 1:1 with test or reference agonist in 384-well plate. The resulting emission of light was recorded using a Hamamatsu Functional Drug Screening System 6000 (FDSS) luminometer. On each day of experimentation, reference compounds were tested at several concentrations to obtain a dose-response curve and an estimated EC50 value. Reference values thus obtained for the test were compared to historical values obtained from the same receptor and used to validate the experimental session.

[3] = target: T2, human S1PR1 (Homo sapiens, UniProt P21453); test: Intracellular Ca2+ release agonist assay (Calcium 5 FLIPR), CHO-K1 cells expressing human S1PR1; conditions: agonism, recombinant CHO-K1 cells with aequorin and Gq/i5; read-out: hS1PR1 pEC50 (converted)
T2 construct: host or cells: CHO-K1
Description: as §1

Chain of hS1PR2 (recombinant human S1P2 receptor) (O95136 whole entry): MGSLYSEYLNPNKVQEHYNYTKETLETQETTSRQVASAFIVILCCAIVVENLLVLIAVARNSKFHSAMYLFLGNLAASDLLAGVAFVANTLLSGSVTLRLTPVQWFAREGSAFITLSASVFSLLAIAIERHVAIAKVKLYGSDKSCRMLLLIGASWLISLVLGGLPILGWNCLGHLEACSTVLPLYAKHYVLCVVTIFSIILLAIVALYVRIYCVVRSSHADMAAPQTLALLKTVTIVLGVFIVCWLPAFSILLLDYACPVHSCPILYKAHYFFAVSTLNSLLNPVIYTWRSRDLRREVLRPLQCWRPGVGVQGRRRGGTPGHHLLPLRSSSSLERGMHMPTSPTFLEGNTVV
T1 sequence (Q99500 whole entry): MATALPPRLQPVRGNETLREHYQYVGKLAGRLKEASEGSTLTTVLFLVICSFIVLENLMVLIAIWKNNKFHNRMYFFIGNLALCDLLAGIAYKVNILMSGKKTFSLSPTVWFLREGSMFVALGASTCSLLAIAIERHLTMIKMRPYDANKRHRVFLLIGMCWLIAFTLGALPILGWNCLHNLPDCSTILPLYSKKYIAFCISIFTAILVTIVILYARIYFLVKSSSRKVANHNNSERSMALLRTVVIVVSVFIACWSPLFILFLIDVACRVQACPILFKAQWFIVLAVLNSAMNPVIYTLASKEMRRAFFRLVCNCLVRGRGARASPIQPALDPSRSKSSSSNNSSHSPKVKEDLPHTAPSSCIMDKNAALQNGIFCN
T2 sequence (P21453 whole entry): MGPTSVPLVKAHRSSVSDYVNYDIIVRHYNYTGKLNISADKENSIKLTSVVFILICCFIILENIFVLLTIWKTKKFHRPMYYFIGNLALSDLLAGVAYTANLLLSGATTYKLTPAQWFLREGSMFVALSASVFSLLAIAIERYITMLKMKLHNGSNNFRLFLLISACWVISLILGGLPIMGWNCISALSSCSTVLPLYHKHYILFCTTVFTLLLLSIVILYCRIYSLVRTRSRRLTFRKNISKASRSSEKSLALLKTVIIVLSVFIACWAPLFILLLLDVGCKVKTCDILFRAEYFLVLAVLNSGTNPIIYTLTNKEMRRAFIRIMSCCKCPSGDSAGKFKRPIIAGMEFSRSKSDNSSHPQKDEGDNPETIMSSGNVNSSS

- EC50 [1]: < 5.01 µM
- EC50 [2]: < 5.01 µM
- EC50 [3]: < 5.01 µM
Compound: CCc1cccc(Cl)c1COc1ccc2c(c1)CC[C@@]21CN(CCC(=O)O)CCO1 [Compound 1a, (S)-3-(5-((2-chloro-6-ethylbenzyl)oxy)-2,3-dihydrospiro[indene-1,2′-morpholin]-4′-yl)propanoic acid]
